Assay results taken from patent publication US6051596A, “Immunosuppressive compositions” (AnorMED, Inc., priority 1997, dated 2000).

Tested on: Lewis-Brown Norway F1 hybrid cardiac allografts in Lewis rat recipients
Experiment: Acute cardiac allograft rejection model in rats (procedure of Kupiec-Weglinski)
Format: in vivo
Conditions: for GRAFT SURVIVAL (days) MEAN ± SD: N=7
Method: The therapeutic efficacy of a pharmaceutical composition of the invention was tested according to the procedure of Kupiec-Weglinski, J. W., et al., (1988) Transplant Proc. 2:207-216 (hereinafter "Kupiec-Weglinski") to determine its in vivo potency as an acute transplantation/graft rejection modulator.
Briefly, to preform these experiments, the following protocol was employed. Male inbred adult rats (Lewis-Brown Norway F1 Hybrid rats, obtained from Harlan sprague-Dawley Inc., Indianapolis, Ind.) were used. Lewis-Brown Norway F1 Hybrid cardiac allografts were transplanted to the abdominal great vessels of Lewis recipients. The animals were administered compounds according to the following five distinct regimens.
Protocol I. Pretreatment Protocol--20 mg/kg/day of Compound A was administered orally for 7 consecutive days prior to transplantation (days -7 to -1).
Protocol II Treatment Protocol--20 mg/kg/day of Compound A was administered orally for 7 consecutive post-transplant days (days 0-6) followed by intermittent 5 day courses (days 9-13 and 16-20).
Protocol III Pretreatment and Treatment Protocol--20 mg/kg/day of Compound A was administered orally for 7 consecutive days prior to transplantation (days -7 to -1) followed by intermittent 5 day courses (days 9-13 and 16-20).
Ventricular contractions were assessed daily by palpation through the recipient flank. Rejection was defined as the day of cessation of myocardial contractions and confirmed histologically.

## CCCC1(CCC)CCC2(CCN(CCCN(C)C)C2)CC1 [Compound A, N,N-dimethyl-8,8-dipropyl-2-azaspiro[4,5]-decane-2-propanamine]
Protocol I pretreatment: 20 mg/kg/day orally, days -7 to -1
  GRAFT SURVIVAL (days) MEAN ± SD: 14.7 ± 5.8 days
Protocol II treatment: 20 mg/kg/day orally, days 0-6, then days 9-13 and 16-20
  GRAFT SURVIVAL (days) MEAN ± SD: 16.7 ± 2.0 days
Protocol III pretreatment and treatment: 20 mg/kg/day orally, days -7 to -1, then days 9-13 and 16-20
  GRAFT SURVIVAL (days) MEAN ± SD: 16.0 ± 4.3 days
Single compound protocols (pretreatment, treatment or both), 20 mg/kg/day orally, untreated average 7 days
  average graft survival time: 16 days
